Assay results published in ChEMBL document CHEMBL1201862, “PubChem BioAssay data set” (2004).
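Growth conditions: 96-well plates. Treatment: test compound, 48 hours, 5 concentrations. Analysis: linear interpolation between bracketing concentrations; unreached endpoints set to highest concentration. GI50: concentration for 50% inhibition of growth.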 The source made the active and inactive calls. Rule as the data show it: active = GI50 up to about 1.1 µM and inactive = higher.

How the values were obtained:
Test in all cases: DTP human tumour cell line panel, 48 h
[1] = test system: 786-0
[2] = test system: COLO 205
[3] = test system: HOP-62
[4] = test system: Hs-578T
[5] = test system: IGROV-1
[6] = test system: MOLT-4
[7] = test system: NCI-H226
[8] = test system: NCI-H522
[9] = test system: NCI/ADR-RES
[10] = test system: OVCAR-5
[11] = test system: PC-3
[12] = test system: SK-MEL-28
[13] = test system: SK-MEL-5
[14] = test system: SK-OV-3
[15] = test system: SN12C
[16] = test system: SNB-19
[17] = test system: U-251
[18] = test system: UACC-62
[19] = test system: A498
[20] = test system: RPMI-8226

Measured: GI50

O=[N+]([O-])c1ccc(/C(=N/c2ccccc2)SS/C(=N\c2ccccc2)c2ccc([N+](=O)[O-])o2)o1
active: [8] 0.243 µM | [17] 0.955 µM
inactive: [1] 1.4 µM | [2] 1.51 µM | [3] 2.17 µM | [4] 2.32 µM | [5] 1.6 µM | [6] 2.51 µM | [7] 18.7 µM | [9] 1.86 µM | [10] 2.08 µM | [11] 1.7 µM | [12] 2.4 µM | [13] 5.78 µM | [14] 3.86 µM | [15] 1.94 µM | [16] 1.84 µM | [18] 1.61 µM

Cc1cc(=O)[nH]c2cc(NC(=O)C(C)NC(=O)C(C)NC(=O)C(C)NC(=O)OC(C)(C)C)ccc12 (stereo not drawn)
inactive: [1] > 15 µM | [19] > 15 µM | [2] > 15 µM | [3] > 15 µM | [4] > 15 µM | [5] > 15 µM | [6] > 15 µM | [7] > 15 µM | [8] > 15 µM | [9] > 15 µM | [10] > 15 µM | [11] > 15 µM | [12] > 15 µM | [13] > 15 µM | [15] > 15 µM | [16] > 15 µM | [17] > 15 µM | [18] > 15 µM

O=C1C(Br)=CC2(C=C1Br)CCNC1=C2C(=O)c2ncccc2C1=O
inactive: [1] 1.47 µM | [2] 1.89 µM | [4] 1.27 µM | [6] 1.83 µM | [7] 1.67 µM | [9] 1.82 µM | [10] 1.67 µM | [11] 1.95 µM | [14] 2.03 µM | [15] 1.21 µM | [16] 1.28 µM | [17] 1.31 µM
active: [3] 0.542 µM | [5] 0.54 µM | [8] 0.353 µM | [20] 0.621 µM | [12] 0.443 µM | [13] 0.533 µM | [18] 0.641 µM

COc1c(C)c(C/C=C(\C)CCCCO[Si](C(C)C)(C(C)C)C(C)C)c(OC)c2ccccc12
inactive: [1] > 100 µM | [2] > 100 µM | [3] > 100 µM | [4] > 100 µM | [5] > 100 µM | [6] 47.6 µM | [8] > 100 µM | [9] > 100 µM | [10] > 100 µM | [11] > 100 µM | [13] > 100 µM | [14] > 100 µM | [15] > 100 µM | [16] > 100 µM | [17] > 100 µM | [18] > 100 µM

CCOC(=O)C1(F)S(=O)(=O)OCCOS1(=O)=O
inactive: [1] > 100 µM | [2] > 100 µM | [3] > 100 µM | [4] 93.3 µM | [6] > 100 µM | [7] > 100 µM | [8] > 100 µM | [9] > 100 µM | [10] > 100 µM | [11] > 100 µM | [20] > 100 µM | [12] > 100 µM | [13] > 100 µM | [14] > 100 µM | [15] > 100 µM | [16] > 100 µM | [17] > 100 µM | [18] > 100 µM

COC(=O)CC[N+]1([O-])CC1
inactive: [1] > 100 µM | [19] 33.2 µM | [2] > 100 µM | [3] > 100 µM | [4] > 100 µM | [5] > 100 µM | [6] > 100 µM | [7] > 100 µM | [9] > 100 µM | [10] > 100 µM | [20] > 100 µM | [12] > 100 µM | [13] > 100 µM | [14] > 100 µM | [15] > 100 µM | [16] > 100 µM | [17] > 100 µM | [18] > 100 µM

S=c1[nH]c2ccc(Br)cc2c(=S)s1
inactive: [1] 30.8 µM | [2] 16.4 µM | [3] 34.8 µM | [4] 40.5 µM | [5] 22.1 µM | [6] 29.9 µM | [7] 28.7 µM | [8] 25.1 µM | [9] 28.6 µM | [10] 19.2 µM | [11] 19.3 µM | [20] 29.2 µM | [12] 52.7 µM | [13] 16.5 µM | [14] 30 µM | [15] 19.9 µM | [16] 31.5 µM | [17] 22.9 µM | [18] 18 µM

CC1=C(/C=C/C(C)=C/C=C/C(C)=C/C(=O)OCC2OC(n3cc(F)c(=O)[nH]c3=O)CC2OC(=O)/C=C(C)/C=C/C=C(C)/C=C/C2=C(C)CCCC2(C)C)C(C)(C)CCC1 (stereo not drawn)
inactive: [1] 1.15 µM | [2] 18.7 µM | [4] 9.25 µM | [5] 6.32 µM | [7] 37.8 µM | [8] 8.2 µM | [9] 5.21 µM | [10] > 45.3 µM | [11] 8.95 µM | [12] 20.9 µM | [13] 3.08 µM | [14] 30.5 µM | [15] 7.43 µM | [16] 3.1 µM | [17] 4.15 µM
active: [3] 0.306 µM | [6] 1.07 µM | [20] 0.796 µM | [18] 0.83 µM

Cc1cccc(Cl)c1NCC(O)CN1CCN(C)CC1 (stereo not drawn)
inactive: [1] > 100 µM | [19] > 100 µM | [3] > 100 µM | [4] > 100 µM | [5] > 100 µM | [6] > 100 µM | [7] > 100 µM | [8] > 100 µM | [9] > 100 µM | [10] > 100 µM | [11] > 100 µM | [12] > 100 µM | [13] > 100 µM | [15] > 100 µM | [16] > 100 µM | [17] > 100 µM | [18] > 100 µM

Cc1cn(Cc2ccccc2CCl)c(=O)[nH]c1=O
inactive: [1] 14.2 µM | [2] 17.1 µM | [3] 15.6 µM | [4] 14.2 µM | [5] 3.46 µM | [6] 3.15 µM | [8] 6.34 µM | [9] 18.2 µM | [10] 23.3 µM | [11] 16 µM | [12] 19.4 µM | [13] 7.4 µM | [14] 26.4 µM | [15] 12.6 µM | [16] 12.3 µM | [17] 7.94 µM | [18] 4.68 µM

Cn1cc(NC(=O)Nc2cc(C(=O)Nc3cc(C(=O)Nc4cc(S(=O)(=O)O)c5cc(S(=O)(=O)O)cc(S(=O)(=O)O)c5c4)n(C)c3)n(C)c2)cc1C(=O)Nc1cc(C(=O)Nc2cc(S(=O)(=O)O)c3cc(S(=O)(=O)O)cc(S(=O)(=O)O)c3c2)n(C)c1
inactive: [1] > 100 µM | [2] > 100 µM | [3] > 100 µM | [4] > 100 µM | [5] 5.64 µM | [6] > 100 µM | [7] > 100 µM | [8] > 100 µM | [9] > 100 µM | [10] > 100 µM | [11] > 100 µM | [20] > 100 µM | [12] > 100 µM | [13] > 100 µM | [14] > 100 µM | [15] > 100 µM | [16] > 100 µM | [17] > 100 µM | [18] > 100 µM
